Measured values taken from publication PMC10281575, “PfCRT mutations conferring piperaquine resistance in falciparum malaria shape the kinetics of quinoline drug binding and transport” (PLOS Pathogens, 2023).
Numbering of substitutions follows the chain as printed. “And” between values parts separate entries of the source, which are not always exact repeats. Equal entries are not always repeated.

Key:
PfCRT^Dd2_G353V = molecular target: T1, PfCRT^Dd2_G353V (Plasmodium falciparum, UniProt Q8IBZ9, A220S/G353V/I356T/K76T/M74I/N326S/N75E/Q271E/R371I); assay: Verapamil inhibition of PfCRT-mediated CQ and PPQ transport in oocytes, PfCRT^Dd2_G353V; type: cell-based; details: individual replicates (S3 Fig)
T1 construct: expressed in transfected cells; host or cells: Xenopus laevis oocytes injected with in vitro transcribed RNA (pSP64T)
T1 sequence (Q8IBZ9 1-424 M74I/N75E/K76T/A220S/Q271E/N326S/G353V/I356T/R371I): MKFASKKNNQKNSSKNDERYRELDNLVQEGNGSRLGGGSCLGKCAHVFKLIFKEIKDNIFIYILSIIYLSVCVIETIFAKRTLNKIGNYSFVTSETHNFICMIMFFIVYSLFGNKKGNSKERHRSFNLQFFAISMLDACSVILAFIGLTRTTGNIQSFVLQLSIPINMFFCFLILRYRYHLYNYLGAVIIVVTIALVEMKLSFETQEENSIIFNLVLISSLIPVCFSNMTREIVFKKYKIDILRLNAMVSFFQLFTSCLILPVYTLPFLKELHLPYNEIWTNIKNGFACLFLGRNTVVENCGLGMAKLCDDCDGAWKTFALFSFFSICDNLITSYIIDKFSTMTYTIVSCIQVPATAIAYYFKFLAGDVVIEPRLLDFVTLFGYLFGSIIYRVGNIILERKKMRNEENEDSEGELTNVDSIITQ
Method: (§1) In all cases, the PfCRT-mediated CQ and PPQ transport was inhibited in the presence of 100 μM verapamil (S3 Fig).
(§2) Drug transport assays were performed as previously described. Briefly, measurements of radiolabeled drug uptake were made over 1 h, unless otherwise specified. […] Where specified, one or more unlabeled drugs were also present at the indicated concentrations. The direction of drug transport in the assays is from the extracellular medium (pH 6) into the oocyte cytosol (pH 7.2), which corresponds to the efflux of CQ or PPQ from the acidic digestive vacuole (pH 5.2) into the parasite cytosol (pH 7.2). The uptake assays were terminated by removing the oocytes from the reaction medium and washing them three times with 2 mL of ice-cold ND96 buffer. Each oocyte was transferred to a separate scintillation vial and lysed by the addition of 200 μL of a 5% SDS solution. The radioactivity in the sample was measured using a liquid scintillation analyser Tri-Carb 4910 TR (PerkinElmer). Water-injected oocytes were analyzed in parallel as a negative control. The buffer from each condition was measured in duplicate in parallel to each experiment to transform counts per minute into pmol of drug. Drug uptake attributable to PfCRT was determined by subtracting the background uptake from water-injected oocytes from that of PfCRT-expressing oocytes. In all cases, at least three independent experiments were performed on oocytes from different frogs, and for each condition in an experiment, measurements were made from 10 oocytes per treatment.
(§3) Supplementary file ppat.1011436.s006.tif: S3 Fig Verapamil inhibits PfCRT-mediated transport of CQ and PPQ. […] Left panels, data is shown as individual biological replicates (coloured symbols) overlaid onto bars representing the Mean ± S.E.M. (error bars). A one-tailed Student’s t-test was performed between untreated (no VP) and treated (+ 100 μM VP) samples, and the obtained p values are shown. Right panels, the uptake in VP-treated samples was divided by the uptake in their corresponding untreated pairs and subtracted from 100% to get the percentage of uptake inhibition mediated by the presence of 100 μM verapamil in the extracellular medium. Error bars are S.E. (TIF) Click here for additional data file.

PfCRT^Dd2 = molecular target: T2, PfCRT^Dd2 (Plasmodium falciparum, UniProt Q8IBZ9, A220S/I356T/K76T/M74I/N326S/N75E/Q271E/R371I); assay: Verapamil inhibition of PfCRT-mediated CQ and PPQ transport in oocytes, PfCRT^Dd2; type: cell-based; design: expressed in transfected cells; host or cells: Xenopus laevis oocytes injected with in vitro transcribed RNA (pSP64T); details: individual replicates (S3 Fig)
T2 sequence (Q8IBZ9 1-424 M74I/N75E/K76T/A220S/Q271E/N326S/I356T/R371I): T1 sequence (Q8IBZ9 1-424 M74I/N75E/K76T/A220S/Q271E/N326S/G353V/I356T/R371I) with V353G
Method: as §1, §2, §3

Compound	PfCRTDd2_G353V-mediated PPQ transport (PfCRT^Dd2_G353V; 50 µM PPQ + 100 µM VP)	PfCRTDd2_G353V-mediated PPQ transport (PfCRT^Dd2_G353V; 50 µM PPQ)	PfCRTDd2-mediated PPQ transport (PfCRT^Dd2; 50 µM PPQ + 100 µM VP)	PfCRTDd2-mediated PPQ transport (PfCRT^Dd2; 50 µM PPQ)	PfCRTDd2_G353V-mediated CQ transport (PfCRT^Dd2_G353V; 50 µM CQ + 100 µM VP)	PfCRTDd2_G353V-mediated CQ transport (PfCRT^Dd2_G353V; 50 µM CQ)	PfCRTDd2-mediated CQ transport (PfCRT^Dd2; 50 µM CQ + 100 µM VP)	PfCRTDd2-mediated CQ transport (PfCRT^Dd2; 50 µM CQ)
Clc1ccc2c(N3CCN(CCCN4CCN(c5ccnc6cc(Cl)ccc56)CC4)CC3)ccnc2c1 [PPQ, piperaquine]	18.21 pmol oocyte-1 h-1 and 25.90 pmol oocyte-1 h-1 and 37.78 pmol oocyte-1 h-1 and 29.33 pmol oocyte-1 h-1 and 30.34 pmol oocyte-1 h-1	29.38 pmol oocyte-1 h-1 and 45.38 pmol oocyte-1 h-1 and 21.36 pmol oocyte-1 h-1 and 40.00 pmol oocyte-1 h-1 and 56.34 pmol oocyte-1 h-1 and 56.46 pmol oocyte-1 h-1 and 95.52 pmol oocyte-1 h-1 and 62.83 pmol oocyte-1 h-1	5.44 pmol oocyte-1 h-1 and 8.16 pmol oocyte-1 h-1 and 20.06 pmol oocyte-1 h-1 and 36.26 pmol oocyte-1 h-1 and 13.97 pmol oocyte-1 h-1	28.14 pmol oocyte-1 h-1 and 21.87 pmol oocyte-1 h-1 and 89.78 pmol oocyte-1 h-1 and 46.28 pmol oocyte-1 h-1 and 30.01 pmol oocyte-1 h-1 and 33.33 pmol oocyte-1 h-1				
CCN(CC)CCCC(C)Nc1ccnc2cc(Cl)ccc12 (centres unmarked) [CQ, chloroquine]					3.530 pmol oocyte-1 h-1 and 3.520 pmol oocyte-1 h-1 and 2.870 pmol oocyte-1 h-1 and 2.520 pmol oocyte-1 h-1 and 3.380 pmol oocyte-1 h-1	4.740 pmol oocyte-1 h-1 and 5.010 pmol oocyte-1 h-1 and 2.880 pmol oocyte-1 h-1 and 3.920 pmol oocyte-1 h-1 and 4.760 pmol oocyte-1 h-1	1.980 pmol oocyte-1 h-1 and 2.230 pmol oocyte-1 h-1 and 2.450 pmol oocyte-1 h-1 and 1.670 pmol oocyte-1 h-1 and 3.620 pmol oocyte-1 h-1	3.900 pmol oocyte-1 h-1 and 4.910 pmol oocyte-1 h-1 and 4.760 pmol oocyte-1 h-1 and 7.490 pmol oocyte-1 h-1 and 5.040 pmol oocyte-1 h-1 and 3.980 pmol oocyte-1 h-1 and 10.460 pmol oocyte-1 h-1
